Measured values as given in patent publication US6107070A, “Human manganese superoxide dismutase proteins” (University of Florida, priority 1998, dated 2000).
Numbering of substitutions follows the chain as printed.

Key:
Type in all cases: biochemical
[1] = molecular target: T1, human manganese superoxide dismutase (hMn SOD) variant Q143N (Gln 143 replaced by Asn), SEQ ID NO:3 (Homo sapiens, UniProt P04179, Q167N); assay: Decay of superoxide catalyzed by Q143N hMnSOD, pulse radiolysis; settings: FIG. 1; first-order fit, 35 μM enzyme, pH 9.6, 20° C.
T1 construct: as a mature protein tagged with an extra Met at the amino terminus; made in house; host or cells: E. coli QC774 (SodA/SodB mutant), pTrc99A
T1 sequence (P04179 25-222 Q167N): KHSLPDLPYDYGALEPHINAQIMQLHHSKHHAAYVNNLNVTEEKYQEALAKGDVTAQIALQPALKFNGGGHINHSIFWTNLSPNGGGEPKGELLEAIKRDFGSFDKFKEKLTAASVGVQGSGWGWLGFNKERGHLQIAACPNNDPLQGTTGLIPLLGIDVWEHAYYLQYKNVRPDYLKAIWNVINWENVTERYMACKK
Experimental: The solutions contained 0.5 μM wild-type MnSOD or 35 μM Q143N hMnSOD and 50 μM EDTA, 10 mM sodium formate, and 2.0 mM sodium pyrophosphate and pH 9.6 and 20° C. The solid line for Q143N hMnSOD is least-squares fit to a first-order process corresponding to Kcat /Km =1×10^6 M^-1 s^-1.
Experiments were carried out at the Center for Fast Kinetics Research at the University of Texas at Austin using a 4-Mev van der Graaff accelerator. A single high-dose electron pulse was used to generate superoxide radical anions from oxygen in acqueous solutions containing 10 mM sodium formate as hydroxyl radical scavenger (Schwartz, 1981) and 50 μM EDTA in addition to buffer and enzyme. All pulse radiolysis experiments were carried out at 20 ° C. The dismutation of O2^- was followed spectrophotometrically from its absorbance at 250 nm (ε=2000M^1 cm^1, Rabani and Nielson, 1969) with a path length of 2.5 cm. Progress curves for each set of 6 to 9 experiments were averaged. Exposure to ultraviolet radiation was minimized by opening a mechanical shutter a fraction of a second before each pulse.

[2] = molecular target: T2, human manganese superoxide dismutase (hMn SOD) variant H30N (His 30 replaced by Asn) (Homo sapiens, UniProt P04179, H54N); assay: Disproportionation of superoxide by H30N hMnSOD, stopped-flow, 20° C.; settings: pH 9.6, 20° C.
T2 construct: as a mature protein tagged with an extra Met at the amino terminus; made in house
T2 sequence (P04179 25-222 H54N): T1 sequence (P04179 25-222 Q167N) with H30N, N143Q
Experimental: (§1) Experiments were based on the stabilization of KO2 in aprotic solvent and the subsequent large dilution of this solution by an aqueous solution of enzyme in a stopped-flow apparatus, as described by McClune and Fee (1978). KO2 was dissolved in a mixture of dimethyl sulfoxide and […] (2:1 by volume; Aldrich, spectrophotometric grade) with solubility of KO2 enhanced with 18-crown-6 (Valentine and Curtis, 1975). The stopped-flow spectrophotometer (Kinetic Instruments, Ann Arbor, Mich.) was capable of efficient mixing of this solution with an acqueous solution of enzyme in buffer with a dead time between 1.5 and 2.0 ms. One drive syringe (capacity 50 μl) contained the aprotic solution of O2. This was diluted fifty-fold by the contents of a second syringe (capacity 2.5 ml) which contained enzyme, EDTA, and buffer. The decay of superoxide in initial velocity experiments and progress curves was monitored by its absorption at 250 to 300 nm. Stopped-flow experiments were carried out at […]. Four or more kinetic traces were averaged to reduce noise. Steady-state parameters were obtained by least-squares analysis of such data (Leatherbarrow (1987) "Enzfitter: a nonlinear regression data analysis program for the IBM PC" Elsevier BIOSOFT, Cambridge).
(§2) In the present study, several novel hMnSOD proteins containing substitutions of His 30 (referring to the amino acid sequence of SEQ ID NO:2) were prepared by PCR site directed mutagenesis and purified by column chromatography, as described in the Materials and Methods section above, and as also described by Hsu et al. (1996) J. Biol. Chem. 271: 1768; and Hsieh et al. (1998) Biochemistry 37: 4731. In particular, His 30 was substituted with each of Ala, Asn, Ser and Gln. The resulting novel hMnSOD proteins containing a His 30 substitution were then assayed for enzymatic activity and product inhibition at 20° C. by measuring the absorbance of superoxide at 250 nm using stopped-flow spectrophotometry, as described above in the Materials and Methods section. […]

[3] = molecular target: T3, human manganese superoxide dismutase (hMn SOD) variant H30Q (His 30 replaced by Gln) (Homo sapiens, UniProt P04179, H54Q); assay: Disproportionation of superoxide by H30Q hMnSOD, stopped-flow, 20° C.; settings: pH 9.6, 20° C.
T3 construct: as a mature protein tagged with an extra Met at the amino terminus; made in house
T3 sequence (P04179 25-222 H54Q): T1 sequence (P04179 25-222 Q167N) with H30Q, N143Q
Experimental: as §1, §2

[4] = molecular target: T4, human manganese superoxide dismutase (hMn SOD) variant H30S (His 30 replaced by Ser) (Homo sapiens, UniProt P04179, H54S); assay: Disproportionation of superoxide by H30S hMnSOD, stopped-flow, 20° C.; settings: pH 9.6, 20° C.
T4 construct: as a mature protein tagged with an extra Met at the amino terminus; made in house
T4 sequence (P04179 25-222 H54S): T1 sequence (P04179 25-222 Q167N) with H30S, N143Q
Experimental: as §1, §2

SMILES: [O]O [superoxide]
- kcat /Km [1]: 1e+06 M⁻¹ s⁻¹
- kcat ([2]; Table 4): 2.9 ms^.1
- kcat /Km ([2]; Table 4): 91 μM^.1 S^.1
- ko /[E] (rate constant for the zero-order region of catalysis) ([2]; Table 5): 1,300 S^.1
- kcat ([3]; Table 4): 1.0 ms^.1
- kcat /Km ([3]; Table 4): 43 μM^.1 S^.1
- ko /[E] (rate constant for the zero-order region of catalysis) ([3]; Table 5): 510 S^.1
- kcat ([4]; Table 4): 1.8 ms^.1
- kcat /Km ([4]; Table 4): 170 μM^.1 S^.1
- ko /[E] (rate constant for the zero-order region of catalysis) ([4]; Table 5): 1,000 S^.1
